Results from paper PMC12259270, “Sensory neuron–expressed FGF13 controls nociceptive signaling in diabetic neuropathy models” (The Journal of Clinical Investigation, 2025).
Residues, ends and D or L forms follow the SMILES beside them. *: point of attachment. Cbz = O=C(OCc1ccccc1)*; NHPh = c1ccc(N*)cc1; OtBu = CC(C)(C)O*

Target: T1, FGF13 (Homo sapiens, UniProt Q92913)
T1 construct: Full-length FGF13-1b (aa 1-192) was subcloned into appropriate plasmids; made in house; host or cells: E. coli BL21 (DE3) pLys
T1 sequence (Q92913 1-192 isoform Q92913-2): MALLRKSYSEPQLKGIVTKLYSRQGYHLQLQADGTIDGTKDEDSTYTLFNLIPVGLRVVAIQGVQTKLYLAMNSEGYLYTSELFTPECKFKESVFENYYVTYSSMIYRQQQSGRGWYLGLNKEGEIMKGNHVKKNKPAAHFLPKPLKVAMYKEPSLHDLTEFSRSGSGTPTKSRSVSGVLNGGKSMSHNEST
Assay: Surface plasmon resonance (SPR), compound binding to FGF13
Conditions: for Kd: SPR
Procedure: page 6: Split-luciferase Complementation Assay (LCA) Twenty-four hours post transfection, cells were trypsinized using TrypLE (Gibco; cat # 12604013), centrifuged […] plates (Greiner Bio -One; cat # 655073 ) at ~0.8 x 10^5 cells per well in 200 μl of medium. The cells were incubated for another 24 hours, and then the growth medium was replaced with 100 μl serum -free, phenol red -free DMEM/F-12 medium (Invitrogen). All compounds from the PW - and the ZL-series, including PW164 and […] medium and then cells were incubated for two hours. The bioluminescence reaction was initiated by injection of 100 μl of D -luciferin substrate (1.5 mg/ml dissolved in PBS) using a Synergy H4 multimode microplate reader (BioTek). Luminescence readings were initiated after 3 s of mild plate shaking and performed at 2 min intervals […] °C. Raw signal intensity was computed by averaging peak luminescence plus two adjacent time points. Normalized signal intensity was expressed as the percentage of mean signal intensity relative to per plate control […] Surface plasmon resonance (SPR) All SPR experiments were performed on a Biacore T100 (GE Healthcare). […] ([…]) , which was previously described (14) or purified FGF13 were immobilized on CM5 sensor chip using 10 mM sodium acetate buffer (pH 5.5) with Amine Coupling Kit (GE […] to the control channel of the chip. For each compound, stock solution (50 mM) was serially diluted from 300 to 1 […] Samples were injected over the chip for 60 s followed by […] page 7: […] The nonspecific responses (buffer alone) were extracted for injected compound or peptide from experimental sensograms before data analysis. Data was analyzed for kinetic properties using Biacore T100 Analysis software. Visually inspected sensograms/traces were used to calculate the equilibrium constant (KD): i. the maximal responses were plotted against the treated concentrations, and the steady state KD was calculated from the fitted saturation binding curve; ii. a kinetic analysis for all ligand/analyte interaction was obtained by using Langmuir 1:1 interaction fitting model (KD = koff/kon). RNA isolation from DRG Mouse surgical and experimental procedures employed were approved by the University of Texas Medical Branch Institutional Animal Care and Use Committee. Animals were sacrificed using carbon dioxide before confirmation of death, rather than cervical dislocation. Mouse lumbar dorsal root ganglia (L4 and L5) were dissected and collected in Buffer RLT Plus (RNeasy Plus Mini Kit, QIAGEN, cat. nos. 74136). RNA was isolated according to the protocol reported in the same kit. Quantitative reverse transcriptase PCR (qRT-PCR) RNA samples for real-time analysis were then quantified using a Nanodrop Spectrophotometer (Thermo Scientific). cDNA was generated from total RNA (1 μg) in a 20 μl reaction using the reagents of iScriptTM Reverse Transcription Supermix for RT-qPCR (Bio-Rad Laboratories, cat. 1708840). FGF13 gene expression was determined by qRT-PCR. qRT-PCR was performed in duplicate for each sample using 4 μl of cDNA in a total volume of 20 μl using the iTaq Universal SYBR Green Supermix (Bio-Rad, Hercules, CA, United States). All RT-PCR assays were run using the BioRad CFX384 Touch Real-Time PCR System (Bio-Rad, Hercules, CA, United States) with the following conditions: 95°[…]) repeated by 40 cycles and 4°C. […] The internal reference gene for SYBR Green assays was 18[NT] and 5'-CTC

| Compound | Kd [µM] | Figure 1C Right panel, Mean response versus concentration (concentration 3.12e-6) | Figure 1C Right panel, Mean response versus concentration (concentration 6.25e-6) | Figure 1C Right panel, Mean response versus concentration (concentration 1.25e-5) | Figure 1C Right panel, Mean response versus concentration (concentration 2.5e-5) | Figure 1C Right panel, Mean response versus concentration (concentration 5e-5) | Figure 1C Right panel, Mean response versus concentration (concentration 7.5e-5) | Figure 1C Right panel, Mean response versus concentration (concentration 0.0001) | Figure 1C Right panel, Mean response versus concentration (concentration 0.00015) | Figure 1C Right panel, Mean response versus concentration (concentration 0.0002) | Figure 1C Right panel, Mean response versus concentration (concentration 0.0003) | Figure 1C Right panel, Mean response versus concentration (concentration 7.80E-07) |
| --- | --- | --- | --- | --- | --- | --- | --- | --- | --- | --- | --- | --- |
| COC(=O)[C@@H](NC(=O)[C@H](CCC(=O)OC(C)(C)C)NC(=O)[C@H](CC(C)C)NC(=O)[C@@H]1CCCN1C(=O)OCc1ccccc1)C(C)C [PW164] (Cbz-PLE(OtBu)V-OMe) | 21 ± 3 | – | – | – | – | – | – | – | – | – | – | – |
| CC(=O)N[C@@H](Cc1ccccc1)C(=O)N[C@@H](CC(C)C)C(=O)N1CCC[C@H]1C(=O)N[C@@H](CCCCN)C(=O)Nc1ccccc1 [ZL192] (Ac-FLPK-NHPh) | 4 | 10.5172 | 11.7391 | 12.5757 | 14.2936 | 15.3045 | 16.2485 | 18.1479 | 20.366 | 22.3345 | 22.6291 | 7.018 |
